Experiment [1] addresses T1, Or13a (Drosophila melanogaster, UniProt Q9VXL0).
T1 construct: wild-type Or13a stably expressed in Sf21 cells (clone Or13a-WT-C4); with Orco
T1 sequence (Q9VXL0 1-418): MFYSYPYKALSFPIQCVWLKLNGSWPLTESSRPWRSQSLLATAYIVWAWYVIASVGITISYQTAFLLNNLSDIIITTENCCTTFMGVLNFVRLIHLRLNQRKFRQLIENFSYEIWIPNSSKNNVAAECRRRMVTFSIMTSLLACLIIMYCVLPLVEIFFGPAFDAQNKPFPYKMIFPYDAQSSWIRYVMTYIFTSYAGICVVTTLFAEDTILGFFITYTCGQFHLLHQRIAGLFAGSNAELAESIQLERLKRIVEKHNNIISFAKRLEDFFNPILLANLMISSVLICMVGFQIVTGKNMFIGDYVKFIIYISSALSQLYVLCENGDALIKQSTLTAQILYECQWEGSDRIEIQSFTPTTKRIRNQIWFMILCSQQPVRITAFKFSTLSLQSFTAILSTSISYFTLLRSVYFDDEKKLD
T1 sequence (Q9VNB5 1-486 partner): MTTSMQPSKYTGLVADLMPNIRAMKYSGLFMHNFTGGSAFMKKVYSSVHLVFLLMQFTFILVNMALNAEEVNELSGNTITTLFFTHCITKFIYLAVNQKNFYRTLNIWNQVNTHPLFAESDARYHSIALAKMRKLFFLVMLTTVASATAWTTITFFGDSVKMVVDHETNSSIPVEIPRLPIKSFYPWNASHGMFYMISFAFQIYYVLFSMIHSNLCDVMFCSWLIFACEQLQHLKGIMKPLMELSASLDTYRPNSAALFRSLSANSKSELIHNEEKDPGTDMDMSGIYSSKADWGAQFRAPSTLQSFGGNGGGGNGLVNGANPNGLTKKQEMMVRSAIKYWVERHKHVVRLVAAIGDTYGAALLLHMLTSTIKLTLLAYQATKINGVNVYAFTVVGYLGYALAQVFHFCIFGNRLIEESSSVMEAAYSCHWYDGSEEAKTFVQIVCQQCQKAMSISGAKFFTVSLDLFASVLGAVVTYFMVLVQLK
As to the kind of experiment: GCaMP6s calcium imaging in Sf21 cells co-expressing Or13a and Orco, dose-response. It counts as cell-based.

The target in experiment [2] is T2, Or56a (Drosophila melanogaster, UniProt Q9V8Y7).
T2 construct: with Orco
As to the kind of experiment: GCaMP6s calcium imaging in Sf21 cells co-expressing Or56a and Orco, dose-response. It counts as cell-based.

T2 sequence (Q9V8Y7 whole entry, one chain of several): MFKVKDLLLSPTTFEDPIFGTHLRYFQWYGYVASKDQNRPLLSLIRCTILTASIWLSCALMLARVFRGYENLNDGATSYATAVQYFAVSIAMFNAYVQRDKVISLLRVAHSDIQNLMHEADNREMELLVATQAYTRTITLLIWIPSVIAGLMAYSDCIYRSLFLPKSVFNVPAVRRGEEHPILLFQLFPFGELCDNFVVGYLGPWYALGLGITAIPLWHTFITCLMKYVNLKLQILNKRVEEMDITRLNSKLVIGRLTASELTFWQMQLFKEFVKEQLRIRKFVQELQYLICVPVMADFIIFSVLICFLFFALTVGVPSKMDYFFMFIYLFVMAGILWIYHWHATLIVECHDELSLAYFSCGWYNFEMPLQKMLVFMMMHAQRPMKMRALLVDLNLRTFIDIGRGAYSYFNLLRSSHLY

The term EC50 denotes the concentration at which the effect is half-maximal. Consider `C=CC(O)CCCCC` (centres unmarked) [1-octen-3-ol], for which the EC50 in experiment [1] is 3.5 µM.

For the molecule `CC1CCCC2(C)CCCCC12O` (stereo not drawn) [geosmin, trans-1,10-dimethyl-trans-9-decalol], the EC50 in experiment [2] came to 0.63 µM.

The values above are taken from paper PMC13125297, “Portable geosmin detection system based on sensor cells expressing insect odorant receptors” (Scientific Reports, 2026).
